Source: patent US9944991B2, “Compositions and methods for diagnosis, prognosis and treatment of hematological malignancies” (Dana-Farber Cancer Institute, Inc., priority 2012, dated 2018)
Entries after “also recorded” stand apart in the source; their conditions may differ. One block for each compound: values may come before it.

Key:
[1] = test system: NF-κB p65; test: NF-κB p65 DNA-binding activity (Active Motif TransAM) in nuclear extracts; format: cell-based, human; conditions: BCWM.1 and MWCL.1; everolimus 1 nM or bortezomib 5 nM, 4 hours; TNF-α 10 ng/mL
Excerpt: NF-κB activity was investigated using the Active Motif TransAM kits, a DNA-binding enzyme-linked immunosorbent assay (ELISA)-based assay (Active Motif North America, Carlsbad, Calif.).

[2] = test system: miR-155; test: qRT-PCR of miR-155 target genes in primary WM CD19+ cells; format: cell-based, human; conditions: 20 μM, 48 hours, vs scramble control
Description: (§1) Total RNA of cells was isolated with the RNeasy kit (Qiagen). cDNA was synthesized using the SuperScript cDNA synthesis kit (Invitrogen) and qRT-PCR reactions were performed using SYBR master mix (SA Bioscience) with designated primers relative to 18S expression by StepOnePlus™ Real-Time PCR System (Applied Biosystem) in triplicates. TaqMan® microRNA Assays kits (Applied Biosystem) were used for quantifying hsa-miR-155 levels relative to RNU6B expression.
(§2) The mRNA levels of the six miR-155 target genes, SMAD5, SOCS1, CEBPβ, MAFB, SHANK2 and SH3PXD2A, […] were next determined by qRT-PCR from primary WM CD19^+ cells, and primary CLL cells, normal donor blood CD19^+ cells, BCWM1 and MEC1 cells.

[3] = test system: MEC1 cells; test: Co-culture with primary WM bone marrow stromal cells, proliferation; format: cell-based, human; conditions: 20 μM, 48 hours
Description: (§3) To examine the effect of antimiR-155 on tumor progression in the context of the microenvironment, the miR-155 levels were first quantified in bone marrow stromal cells (mesenchymal stem cells) from WM patients in comparison to normal healthy donors. […] Consequently, 20 μM antimiR-155 or scramble control was added to a co-culture of BCWM1 and primary WM bone marrow stromal cells or MEC1 cells and primary WM bone marrow stromal cells, and then assessed for cell proliferation by MTT and [H]^3 thymidine uptake assays, respectively, after 48-hours. […] No effect on cell cytotoxicity on stromal cells was observed.

[4] = test system: BCWM1 cells; test: as above; format: cell-based, human; conditions: 20 μM, 48 hours
Description: as §3

[5] = test system: primary WM bone marrow stromal cells; test: Cytotoxicity on stromal cells in co-culture; format: cell-based, human; conditions: 20 μM, 48 hours
Description: as §3

[6] = test system: miR-155; test: qRT-PCR of miR-155 target genes in primary CLL cells; format: cell-based, human; conditions: 20 μM, 48 hours, vs scramble control
Description: as §1, §2

[7] = test system: miR-155; test: miR-155 target de-repression in xenograft mice (qRT-PCR of bone marrow CD19+ cells, immunostaining); format: in vivo, SCID mice
Description: (§4) Immediately after tail vein injection of mCherry-Luc+-BCWM1 cells (3×10^6/mouse) in SCID mice, the mice (6 mice/group) were treated with a single intravenous tail vein injection of 25 mg/kg with either antimiR-155 or LNA scramble control, followed by weekly maintenance doses of 5 mg/kg antimiR-155 or LNA scramble control until the mice were sacrificed. Mice were injected with 75 mg/kg luciferin (Caliper Life Sciences, Hopkinton, Mass.), followed by whole-body real-time bioluminescence imaging (Xenogen IVIS imaging system, Caliper Life Sciences, Hopkinton, Mass.) performed at Day 0, Day 14, and Day 19. Mice were sacrificed by inhalation of CO2. RNA was extracted from CD19+ cells isolated from one mouse femur by using CD19+ microbead selection. The other femur, liver, and spleen were fixed in formaldehyde.
Moreover, immunostaining confirmed de-repression of the MAFB and CEBPβ targets at the protein level in the bone marrow and spleen upon treatment with the antimiR-155 (FIG. 7D).

[8] = test system: MEC1 cells; test: MTT cell survival / cytotoxicity assay; format: cell-based, human; conditions: 20 μM, 48 hours, vs scramble control
Description: (§5) To assess the uptake of antimiR-155 into BCWM1 or MEC1 cells, a 5′ FAM-labeled antimiR-155 was used and the antimiR was added directly to the cell suspension without any transfection reagent. The uptake of FAM-labeled antimiR-155 into BCWM1 cells was higher than 90% as judged by flow cytometry (data not shown), which indicates efficient delivery of the 8-mer antimiR into tumor cells. To further examine the functional effect of antimiR-155 on BCWM1 or MEC1, cell survival and cell proliferation was measured by MTT and [H]^3 thymidine uptake assays, respectively. […] Thus, miR-155 inhibition regulates cell proliferation, but not cell apoptosis.

[9] = test system: BCWM1 cells; test: MTT cell survival / cytotoxicity assay; format: cell-based, human; conditions: 20 μM, 48 hours, vs scramble control
Description: as §5

[10] = test system: MEC1 cells; test: Co-culture with stromal cells from wild-type or miR-155−/− mice, [H]3 thymidine uptake; format: cell-based, human; conditions: 20 μM, 48 hours, vs scramble control
Description: (§6) To further clarify whether antimiR-155 can affect both tumor cells and stromal cells, BCWM1 or MEC1 cells were treated with antimiR-155 or scramble control, followed by co-culturing of the treated cells with bone marrow stromal cells from wild-type mice in comparison with stromal cells from miR-155^−/− mice. Cell survival and cell proliferation were assessed by MTT assay and [H]^3 thymidine uptake assays, respectively, after 48-hour of co-culture.

[11] = test system: BCWM1 cells; test: as above; format: cell-based, human; conditions: 20 μM, 48 hours, vs scramble control
Description: as §6

[12] = test system: miR-155; test: Gene expression profiling and qRT-PCR of miR-155 target mRNAs in BCWM1 cells; format: cell-based, human; conditions: vs scramble control
Description: Total RNA from BCWM1 cells treated with antimiR-155 or LNA scramble control oligonucleotide, respectively, for 48 hours, were isolated using RNeasy kit (Qiagen) as described by the manufacturer, and hybridized on an Affymetrix U133A 2.0 array chip (Affymetrix, Santa Clara, Calif.). GEP data were analyzed using dChip software (biosunl.harvard.edu/complab/dchip/). Candidate target mRNAs for miR-155 were identified by using the algorithms TargetScan (genes.mit.edu/targetscan/), PicTar (pictar.bio.nyu.edu/) and RNAhybrid (bibiserv.techfak.uni-bielefeld.de/rnahybrid/).
as §1
To identify new direct miR-155 targets in B cell lymphomas, gene expression profiling (GEP) was performed on BCWM.1 cells after treatment with antimiR-155 or scramble control for 24 or 48 hours. […]

[13] = test system: mCherry-Luc+-BCWM1 cells; test: Xenograft mouse model of WM, bioluminescent imaging of tumor burden; format: in vivo, SCID mice
Description: as §4
To assess the anti-tumor activity of antimiR-155 in vivo, a xenograft mouse model of WM was used. Six SCID mice per group were engrafted with 3×10^6 mCherry-Luc^+-BCWM1 cells, after which mice were injected with a loading dose of 25 mg/kg antimiR-155 or scramble control, which was followed by weekly maintenance doses of 5 mg/kg of each respective compound until the mice were sacrificed. Tumor burden was monitored using bioluminescent imaging (BLI) at Days 0, 14, and 19 after injection (FIG. 7A).

[14] = test system: MEC1 cells; test: [H]3 thymidine uptake cell proliferation assay; format: cell-based, human; conditions: 20 μM, 48 hours, vs scramble control
Description: as §5

[15] = test system: BCWM1 cells; test: [H]3 thymidine uptake cell proliferation assay; format: cell-based, human; conditions: 20 μM, 48 hours, vs scramble control
Description: as §5

TNF-α-induced NF-κB recruitment to the nucleus, single agents [1]: similarly inhibited
Compound: CC(C)C[C@H](NC(=O)[C@H](Cc1ccccc1)NC(=O)c1cnccn1)B(O)O [bortezomib]

Compound: antimiR-155: fully LNA-modified 8-mer seed-targeting antimiR-155 (3′ATTACGAT 5′ (SEQ ID NO:9)) (fully LNA-modified, chemistry not fully specified; listed 3' to 5')
mRNA levels of the six miR-155 targets [2]: significant increase in the mRNA levels
tumor cell proliferation in co-culture [3]: decreased tumor cell proliferation
protective effect of bone marrow stromal cells on WM tumor cells [4]: overcame the protective effect of bone marrow stromal cells
tumor cell proliferation in co-culture ([4]; primary WM bone marrow stromal cells): decreased tumor cell proliferation
cell cytotoxicity on stromal cells [5]: No effect
mRNA levels of the six miR-155 targets [6]: significant increase in the mRNA levels
CEBPβ protein level in bone marrow and spleen (immunostaining) ([7]; mouse, in vivo): de-repression
MAFB protein level in bone marrow and spleen (immunostaining) ([7]; mouse, in vivo): de-repression
mRNA levels of six miR-155 targets in bone marrow WM CD19+ cells ([7]; vs scramble control): de-repressed
cell cytotoxicity [8]: no change in cell cytotoxicity
cell cytotoxicity [9]: no change in cell cytotoxicity
tumor cell proliferation, co-culture with miR-155−/− stromal cells [10]: not significantly
tumor cell proliferation, co-culture with wild-type mice stroma [10]: decreased tumor cell proliferation
tumor cell proliferation, co-culture with miR-155−/− stromal cells [11]: not significantly
tumor cell proliferation, co-culture with wild-type mice stroma [11]: decreased tumor cell proliferation
validated miR-155 target mRNAs (CEBPβ, SMAD5, SOCS1) ([12]; 24 or 48 hours): up-regulated; also recorded: upregulated
new miR-155 targets MAFB, SHANK2, SH3PXD2A mRNA ([12]; 48 hours): de-repressed; also recorded: upregulated
tumor burden (BLI) ([13]; 25 mg/kg loading dose, weekly 5 mg/kg, Day 14 and Day 19, vs scramble control): significant reduction in tumor burden; also recorded: significantly decreased tumor burden
body weight ([13]; antimiR-155 vs scramble control group): No difference in body weight
cell proliferation [14]: significant reduction in cell proliferation
cell proliferation [15]: significant reduction in cell proliferation
